This is an account of results in US10030016B2 (Sunesis Pharmaceuticals, Inc., priority 2009, dated 2018).

The target of one experiment is PDK1 (Homo sapiens (Human), UniProt O15530). Put plainly: PDK1 kinase assay (coupled PDK1/AKT/FAM-crosstide assay, IMAP fluorescence polarization). The class given is biochemical. In short, it runs like this:
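Coupled cascade: 0.75 nM PDK1 (51-359) → 10 nM AKT2 (140-467-PIFtide) → 100 nM FAM-crosstide. ATP 40 μM, 25° C, 30 min. IMAP FP (ex 485/em 530), 2 h binding. ΔmP vs conc, 4-param fit.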
(In fluorescence polarisation assays a small probe gives low polarisation when free and higher when bound to something large.)

The subject of experiment [1] is phospho-akt (Thr308) in PC-3 cells. Put plainly: Inhibition of phospho-akt (Thr308) in PC-3 cells, MSD phospho-akt 308 ELISA kit. The class given is cell-based. To be noted: 2 hours, no serum, read-out: EC50. In short, it runs like this:
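PC-3 cells (15,000/well, overnight in 10% FBS medium) treated 2 h with three-fold diluted compounds in serum-free medium; DMSO high and 5 μM wortmannin low controls. Lysates captured on BSA-blocked MSD plates overnight at 4 °C, then 1 h antibody detection at RT; phospho-Akt Thr308 read by MSD electrochemiluminescence.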

[2] abbreviates: inhibition of phospo-PDK1 in vitro.
Where [3] appears, read: Homo sapiens, inhibition of P308 Akt in PC-3 cells, MSD.
The mark [4] stands for this setting: Homo sapiens, inhibition of P308 Akt in PC-3 cells using MSD.

The structures appear in SMILES notation. Structures can show the parent of a compound that is named as a salt. Where two headings read alike, the source gives them in different places.

PDK1, sequence (O15530 51-359): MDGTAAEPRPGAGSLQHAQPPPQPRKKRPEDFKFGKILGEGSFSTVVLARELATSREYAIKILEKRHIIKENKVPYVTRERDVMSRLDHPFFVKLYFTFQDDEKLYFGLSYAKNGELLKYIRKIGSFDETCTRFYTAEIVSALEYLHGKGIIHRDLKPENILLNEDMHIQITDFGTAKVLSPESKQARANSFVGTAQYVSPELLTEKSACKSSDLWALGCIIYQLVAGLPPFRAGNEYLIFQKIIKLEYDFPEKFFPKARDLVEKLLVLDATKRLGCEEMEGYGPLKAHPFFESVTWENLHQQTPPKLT

In general, IC50 refers to the point on the concentration scale where inhibition reaches its midpoint. A word on the EC50: it is the concentration that produces a half-maximal response. Compound `CNC(=O)c1ncnc2ccc(-c3ccc(CNc4ncccc4C(=O)N[C@@H](C)c4ccc(F)c(F)c4)s3)cc12` [Example 4.25, (S)-6-(5-((3-(1-(3,4-difluorophenyl)ethyl-carbamoyl)pyridin-2-ylamino)methyl)thiophen-2-yl)-N-methylquinazoline-4-carboxamide] displayed an IC50 on PDK1 (setting [2]) of more than 5000 nM. The EC50 in experiment [1] (setting [3]) is more than 10000 nM.
At PDK1 (inhibition of PDK1 in vitro), `Nc1n[nH]c2ncc(-c3ccc(CNc4ncc(C(F)(F)F)cc4-c4nc5cc(F)ccc5o4)cc3)cc12` [Example 348, 5-(4-((3-(5-fluorobenzo[d]oxazol-2-yl)-5-(trifluoro-methyl)pyridin-2-ylamino)methyl)phenyl)-1H-pyrazolo [3,4-b]pyridin-3-amine] yielded a half-inhibitory concentration (IC50) of more than 5000 nM. The EC50 in experiment [1] (setting [4]) was more than 10000 nM.
With `CNS(=O)(=O)c1cnc(NCc2ccc(-c3ccc4ncnc(N)c4c3)s2)c(C(=O)N[C@@H](C)c2ccc(F)cc2)c1` [Example 8.7.7, 2-({[5-(4-aminoquinazolin-6-yl)thiophen-2-yl]methyl}amino)-N-[(1S)-1-(4-fluorophenyl)ethyl]-5-(methylsulfamoyl) pyridine-3-carboxamide], the 50% inhibitory concentration (IC50) on PDK1 (setting [2]) was in the range of 100 to 1000 nM. The EC50 in experiment [1] (setting [3]) lay in the range of 1000 to 10000 nM.
On the same counts, the results for `N#Cc1cnc(NCc2ccc(-c3cnc4[nH]nc(N)c4c3)cc2)c(C(=O)Nc2ccc(F)cc2)n1` [Example 29, 3-(4-(3-amino-1H-pyrazolo[3,4-b]pyridin-5-yl)benzylamino)-6-cyano-N-(4-fluorophenyl) pyrazine-2-carboxamide] are less than 100 nM and less than 1000 nM.
Take `CCc1nc(C)c(/C=C2\C(=O)Nc3cc(/C=C/CNc4ncccc4C(=O)NCc4ccc(F)c(F)c4)ccc32)[nH]1` [Example 15.11, N-(3,4-Difluoro-benzyl)-2-((E)-3-{3-[1-(2-ethyl-5-methyl-3H-imidazol-4-yl)-meth-(Z)-ylidene]-2-oxo-2,3-dihydro-1H-indol-6-yl}-allylamino)-nicotinamide]: on PDK1 (setting [2]), the IC50 is less than 100 nM. For the same compound, the EC50 in experiment [1] (setting [3]) was less than 1000 nM.
`C[C@H](NC(=O)c1cccnc1NCc1cccc(-c2c[nH]c3ncnc(N)c23)c1)c1ccc(F)cc1` [Example 2.29, (S)-2-(3-(4-amino-7H-pyrrolo[2,3-d]pyrimidin-5-yl)benzylamino)-N-(1-(4-fluorophenyl)ethyl) nicotinamide] showed an IC50 on PDK1 (setting [2]) of less than 100 nM. The EC50 in experiment [1] (inhibition of P308 Akt in PC-3 cells, MSD) was 1000 to 10000 nM.
As to `C[C@H](NC(=O)c1cc(C#N)cnc1N[C@H](CC(N)=O)c1ccc(-c2c[nH]c3ncnc(N)c23)cc1)c1ccc(F)cc1` [Example 46, 2-((R)-3-amino-1-(4-(4-amino-7H-pyrrolo[2,3-d]pyrimidin-5-yl)phenyl)-3-oxopropylamino)-5-cyano-N—((S)-1-(4-fluorophenyl)ethyl)nicotinamide], the concentration for half-maximal inhibition (IC50) on PDK1 (inhibition of PDK1 in vitro) was less than 100 nM. The EC50 in experiment [1] (setting [4]) was more than 10000 nM.
Turning to `Nc1ncnc2ccc(-c3ccc(CNc4ncccc4C(=O)NCc4cc(F)ccc4F)s3)cc12` [Example 3.6, 2-({[5-(4-aminoquinazolin-6-yl)thiophen-2-yl]methyl}amino)-N-(2,5-difluorobenzyl)pyridine-3-carboxamide], the IC50 against PDK1 (setting [2]) lay in the range of 100 to 1000 nM. Besides, the concentration for a half-maximal effect (EC50) in experiment [1] (setting [3]) is more than 10000 nM.
Regarding `Cn1cnc2cnc3ccc(-c4ccc(CNc5ncccc5C(=O)NCc5cncc(F)c5)s4)cc3c21` [Example 354, N-((5-fluoropyridin-3-yl)methyl)-2-((5-(1-methyl-1H-imidazo[4,5-c]quinolin-8-yl)thiophen-2-ylmethyl)amino)nicotinamide], the IC50 against PDK1 (inhibition of PDK1 in vitro) is less than 100 nM. In addition, the 50% effective concentration (EC50) in experiment [1] (setting [4]) was less than 1000 nM.
Regarding `Cn1cc(C(=O)NCc2ccc(F)c(F)c2)c(NCc2ccc(-c3ccc4ncnc(N)c4c3)s2)n1` [Ex. 11.1], at PDK1 (setting [2]), the 50% inhibitory concentration (IC50) is less than 100 nM. For the same compound, the EC50 in experiment [1] (setting [3]) is 1000 to 10000 nM.
For `CC(C)Oc1cc(CNc2ncccc2C(=O)N(C)C2CCCCC2)cc(-c2c[nH]c3ncc(C(=O)NC4CC4)cc23)c1` [Example 4.1.6, 3-{3-[({3-[cyclohexyl(methyl)carbamoyl]pyridin-2-yl}amino)methyl]-5-(propan-2-yloxy)phenyl}-N-cyclopropyl-1H-pyrrolo[2,3-b]pyridine-5-carboxamide], at PDK1 (setting [2]), the IC50 is more than 5000 nM. For the same compound, the half-maximal effective concentration (EC50) in experiment [1] (setting [3]) was more than 10000 nM.
With `CC[C@H](NC(=O)c1cccnc1NCc1ccc(-c2ccc3ncnc(N)c3c2)s1)c1cccc(F)c1` [Example 3.42, (S)-2-((5-(4-aminoquinazolin-6-yl)thiophen-2-yl)methylamino)-N-(1-(3-fluorophenyl)propyl) nicotinamide (TFA salt)], at PDK1 (setting [2]), the IC50 lay in the range of 100 to 1000 nM. Moreover, the EC50 in experiment [1] (setting [3]) was more than 10000 nM.
Consider `Nc1ncnc2ccc(-c3ccc(CNc4ncc(-c5ccccc5)nc4C(=O)NCc4ccc(F)c(F)c4)s3)cc12` [Ex. 10.3, 3-({[5-(4-aminoquinazolin-6-yl)thiophen-2-yl]methyl}amino)-N-(3,4-difluorobenzyl)-6-phenylpyrazine-2-carboxamide], for which the IC50 against PDK1 (setting [2]) was more than 5000 nM. For the same compound, the EC50 in experiment [1] (setting [3]) is more than 10000 nM.
For `Cc1n[nH]cc1/C=C1\C(=O)Nc2cc(/C=C/CNc3ncccc3C(=O)NCc3ccc(F)c(F)c3)ccc21` [Example 15.10, N-(3,4-Difluoro-benzyl)-2-((E)-3-{3-[1-(3-methyl-1H-pyrazol-4-yl)-meth-(Z)-ylidene]-2-oxo-2,3-dihydro-1H-indol-6-yl}-allylamino)-nicotinamide], the IC50 on PDK1 (setting [2]) is less than 100 nM. The EC50 in experiment [1] (setting [3]) was less than 1000 nM.
Turning to `Nc1n[nH]c2ncc(-c3ccc(CNc4ncc(C(F)(F)F)cc4C(=O)Nc4ccc(Cl)cc4)cc3)cc12` [Example 304, 2-(4-(3-amino-1H-pyrazolo [3,4-b]pyridin-5-yl)benzylamino)-N-(4-chlorophenyl)-5-(trifluoromethyl)nicotinamide], the IC50 at PDK1 (inhibition of PDK1 in vitro) was less than 100 nM. Besides, the EC50 in experiment [1] (setting [4]) is less than 1000 nM.
Turning to `Cc1[nH]c(/C=C2\C(=O)Nc3cc(/C=C/CNc4ncccc4C(=O)NCc4ccc(F)c(F)c4)ccc32)c(C)c1C(=O)O` [Example 15.6], the IC50 on PDK1 (setting [2]) is more than 5000 nM. In addition, the half-maximal effective concentration (EC50) in experiment [1] (setting [3]) is less than 1000 nM.
The compound `Nc1ncnc2ccc(-c3ccc(CNc4ncc(C(F)(F)F)cc4C(=O)NCc4ccc(F)c(F)c4)s3)cc12` [Ex. 8.12.1, 2-(((5-(4-aminoquinazolin-6-yl)thiophen-2-yl)methyl)amino)-N-(3,4-difluorobenzyl)-5-(trifluoromethyl)nicotinamide] registered an IC50 against PDK1 (setting [2]) of less than 100 nM. In experiment [1] (setting [3]), the EC50 is less than 1000 nM.
With `Nc1ncnc2[nH]cc(-c3ccc(CNc4ncc(C(F)(F)F)cc4C(=O)NCc4ccc(F)c(F)c4)cc3)c12` [Example 330, 2-[4-(4-Amino-7H-pyrrolo [2,3-d]pyrimidin-5-yl)-benzylamino]-N-(3,4-difluoro-benzyl)-5-trifluoromethyl-nicotinamide], on PDK1 (inhibition of PDK1 in vitro), the IC50 is less than 100 nM. Also, the EC50 in experiment [1] (setting [4]) was less than 1000 nM.
Consider `Nc1ncnc2ccc(-c3ccc(CNc4ncc(S(=O)(=O)NCc5cccnc5)cc4C(=O)NCc4ccc(F)c(F)c4)s3)cc12` [Example 8.7.13, 2-(((5-(4-aminoquinazolin-6-yl)thiophen-2-yl)methyl)amino)-N-(3,4-difluorobenzyl)-5-(N-(pyridin-3-ylmethyl)sulfamoyl)nicotinamide], for which, on PDK1 (setting [2]), the IC50 was in the range of 100 to 1000 nM. Besides, in experiment [1] (setting [3]), the EC50 lay in the range of 1000 to 10000 nM.
On PDK1 (setting [2]), `C[C@H](NC(=O)c1cccnc1NCc1ccc(-c2ccc3ncc(N)nc3c2)s1)c1ccc(F)c(F)c1` [Example 4.30, (S)-2-(((5-(3-aminoquinoxalin-6-yl)thiophen-2-yl)methyl)amino)-N-(1-(3,4-difluorophenyl)ethyl) nicotinamide] displayed a concentration for half-maximal inhibition (IC50) of 100 to 1000 nM. Also, the EC50 in experiment [1] (Homo sapiens, PC-3, 2 h, inhibition of P308 Akt in PC-3 cells, MSD) was in the range of 1000 to 10000 nM.
Take `C[C@H](NC(=O)c1cc(C#N)cnc1NCc1ccc(-c2c[nH]c3ncnc(N)c23)cc1)c1ccc(F)cc1` [Example 41, 2-[4-(4-Amino-7H-pyrrolo[2,3-d]pyrimidin-5-yl)-benzylamino]-5-cyano-N-[(S)-1-(4-fluoro-phenyl)-ethyl]-nicotinamide]: the IC50 at PDK1 (inhibition of PDK1 in vitro) is less than 100 nM. Besides, the EC50 in experiment [1] (setting [4]) was less than 1000 nM.
`Nc1ncc(-c2ccc(CNc3ncc(C(F)(F)F)cc3C(=O)Nc3ccc(F)cc3)cc2)nc1CCC1CCCNC1` (centres unmarked) [Example 77, 2-{4-[5-Amino-6-(2-piperidin-3-yl-ethyl)-pyrazin-2-yl]-benzylamino}-N-(4-fluoro-phenyl)-5-trifluoromethyl-nicotinamide] came in with a half-inhibitory concentration (IC50) at PDK1 (inhibition of PDK1 in vitro) of less than 100 nM. Besides, the EC50 in experiment [1] (setting [4]) fell in the range of 1000 to 10000 nM.
Turning to `Cn1cc(-c2ccc(CNc3ncc(C#N)nc3C(=O)NCc3cncc(F)c3)cc2)c2c(N)ncnc21` [Example 28, 3-(4-(4-amino-7-methyl-7H-pyrrolo[2,3-d]pyrimidin-5-yl)benzylamino)-6-cyano-N-((5-fluoropyridin-3-yl)methyl)pyrazine-2-carboxamide], the IC50 against PDK1 (setting [2]) was less than 100 nM. Further, the EC50 in experiment [1] (setting [3]) was less than 1000 nM.
On PDK1 (setting [2]), `Nc1ncnc2ccc(-c3ccc(CNc4nccnc4C(=O)NCc4cccc(F)c4F)s3)cc12` [Example 3.74, 3-({[5-(4-aminoquinazolin-6-yl)thiophen-2-yl]methyl}amino)-N-(2,3-difluorobenzyl)pyrazine-2-carboxamide (TFA salt)] returned an IC50 of 100 to 1000 nM. Also, the EC50 in experiment [1] (setting [3]) is more than 10000 nM.
For `C[C@H](NC(=O)c1cccnc1NCc1ccc(-c2ccc3ncnc(N4CC(CO)C4)c3c2)s1)c1ccc(F)c(F)c1` [Example 4.38] the same measures were less than 100 nM and 1000 to 10000 nM.
